Measurements taken from patent US10118930B2, “Piperidinylpyrazolopyrimidinones and their use” (BAYER PHARMA AKTIENGESELLSCHAFT, priority 2015, dated 2018).
Structures can show the parent of a compound that is named as a salt.

Each molecule was assayed on clot lysis (fibrinolysis) in diluted human citrated plasma, tPA-induced (assay: Plasma-based clot lysis assay (5%)). Settings: human citrated platelet-poor plasma 5%, fibrinogen 3 μM, CaCl2 10 mM, tPA 0.2 nM, 37° C., OD at 405 nm.
Assay type: biochemical
In short: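 Compounds added to 5% platelet-poor citrated human plasma with 3 μM fibrinogen in 20 mM HEPES, 150 mM NaCl, 0.01% Brij, pH 7. Clotting and lysis started with 10 mM CaCl2 and 0.2 nM tPA at 37° C. IC50 derived by comparing time courses with a blank control reaction.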
`COCC(C)(C)c1noc(-c2cnn3c(C4CCNCC4)cc(=O)[nH]c23)n1` [Example 105, 3-[3-(1-methoxy-2-methylpropan-2-yl)-1,2,4-oxadiazol-5-yl]-7-(piperidin-4-yl)pyrazolo[1,5-a]pyrimidin-5(4H)-one] showed an IC50 of 95 nM. With `CSc1nn2c(C3CCNCC3)cc(=O)[nH]c2c1C(=O)O` [Example 469, 2-(methylsulfanyl)-5-oxo-7-(piperidin-4-yl)-4,5-dihydropyrazolo[1,5-a]pyrimidine-3-carboxylic acid hydrochloride] the IC50 was 160 nM. `CCCN(CC)C(=O)c1c(C)nn2c(C3CCNCC3)cc(=O)[nH]c12` [Example 432, N-ethyl-2-methyl-5-oxo-7-(piperidin-4-yl)-N-propyl-4,5-dihydro-pyrazolo[1,5-a] pyrimidine-3-carboxamide hydrochloride] showed an IC50 of 120 nM. In the case of `C[C@H]1C[C@H](c2cc(=O)[nH]c3c(C(N)=O)cnn23)CCN1` [Example 51, (−)-trans-7-(2-Methylpiperidin-4-yl)-5-oxo-4,5-dihydropyrazolo[1,5-a]pyrimidine-3-carboxamide trifluoroacetate], the IC50 is reported as 16 nM. With `O=c1cc(C2CCNCC2)n2ncc(-c3noc(-c4cc(Cl)cc(Cl)c4)n3)c2[nH]1` [Example 234, 3-[5-(3,5-dichlorophenyl)-1,2,4-oxadiazol-3-yl]-7-(piperidin-4-yl)pyrazolo[1,5-a]pyrimidin-5(4H)-one hydrochloride] the IC50 was 35 nM. `O=c1cc(C2CCNCC2)n2ncc(-c3noc(-c4ccccc4F)n3)c2[nH]1` [Example 216, 3-[5-(2-fluorophenyl)-1,2,4-oxadiazol-3-yl]-7-(piperidin-4-yl)pyrazolo[1,5-a]pyrimidin-5 (4H)-one hydrochloride] gave an IC50 of 34 nM. Molecule `Cc1ccc(-c2csc(-c3cnn4c(C5CCNCC5)cc(=O)[nH]c34)n2)cc1` [Example 309, 3-[4-(4-methylphenyl)-1,3-thiazol-2-yl]-7-(piperidin-4-yl)pyrazolo[1,5-a]pyrimidin-5(4H)-one hydrochloride] has an IC50 of 41 nM. In the case of `Cc1nn2c(C3CCNCC3)cc(=O)[nH]c2c1-c1nc(C(F)(F)F)no1` [Example 341, 2-methyl-7-(piperidin-4-yl)-3-[3-(trifluoromethyl)-1,2,4-oxadiazol-5-yl]pyrazolo[1,5-a]pyrimidin-5(4H)-one hydrochloride], the IC50 is reported as 34 nM. `CC(C)(C)CNC(=O)c1cnn2c(C3CCNCC3)cc(=O)[nH]c12` [Example 93, N-(2,2-dimethylpropyl)-5-oxo-7-(piperidin-4-yl)-4,5-dihydropyrazolo[1,5-a]pyrimidine-3-carboxamide hydrochloride] gave an IC50 of 22 nM. With `Cc1nn2c(C3CCNCC3)cc(=O)[nH]c2c1C(=O)OC(C)(C)C` [Example 468, Tert-butyl 2-methyl-5-oxo-7-(piperidin-4-yl)-4,5-dihydropyrazolo[1,5-a]pyrimidine-3-carboxylate hydrochloride] the IC50 was 39 nM. With `O=C(c1cnn2c(C3CCNCC3)cc(=O)[nH]c12)C1CCCC1` [Example 451, 3-(cyclopentylcarbonyl)-7-(piperidin-4-yl)pyrazolo[1,5-a]pyrimidin-5(4H)-one hydrochloride] the IC50 was 11 nM. Molecule `O=c1cc(C2CCNCC2)n2ncc(-c3ccc(F)cc3)c2[nH]1` [Example 4, 3-(4-Fluorophenyl)-7-(piperidin-4-yl)pyrazolo[1,5-a]pyrimidin-5(4H)-one hydrochloride] has an IC50 of 40 nM. Work on `CCc1cccc(NC(=O)c2cnn3c(C4CCNCC4)cc(=O)[nH]c23)c1` [Example 80, N-(3-ethylphenyl)-5-oxo-7-(piperidin-4-yl)-4,5-dihydropyrazolo[1,5-a]pyrimidine-3-carboxamide] yielded an IC50 of 33 nM. In the case of `O=c1cc(C2CCNCC2)n2ncc(-c3nc(-c4cnccc4C(F)(F)F)no3)c2[nH]1` [Example 189, 7-(piperidin-4-yl)-3-{3-[4-(trifluoromethyl)pyridin-3-yl]-1,2,4-oxadiazol-5-yl}pyrazolo[1,5-a]pyrimidin-5(4H)-one hydrochloride], the IC50 is reported as 38 nM. Molecule `CC(C)Oc1ccc(Cc2nc(-c3cnn4c(C5CCNCC5)cc(=O)[nH]c34)no2)cc1` [Example 252, 7-(piperidin-4-yl)-3-{5-[4-(propan-2-yloxy)benzyl]-1,2,4-oxadiazol-3-yl}pyrazolo[1,5-a]pyrimidin-5(4H)-one hydrochloride] has an IC50 of 24 nM. For `O=C(NCc1ccccc1)c1cnn2c(C3CCNCC3)cc(=O)[nH]c12` [Example 22, N-Benzyl-5-oxo-7-(piperidin-4-yl)-4,5-dihydropyrazolo[1,5-a]pyrimidine-3-carboxamide hydrochloride], the IC50 was 13 nM. Work on `Cc1nn2c(C3CCNCC3)cc(=O)[nH]c2c1C(=O)OCC(C)(F)F` [Example 461, 2,2-difluoropropyl 2-methyl-5-oxo-7-(piperidin-4-yl)-4,5-dihydropyrazolo[1,5-a]pyrimidine-3-carboxylate hydrochloride] yielded an IC50 of 61 nM. Molecule `Cc1noc(-c2cnn3c(C4CCNCC4)cc(=O)[nH]c23)n1` [Example 32, 3-(3-Methyl-1,2,4-oxadiazol-5-yl)-7-(piperidin-4-yl)pyrazolo[1,5-a]pyrimidin-5(4H)-one hydrochloride] has an IC50 of 15 nM. Work on `CC(C)N1CCC(c2noc(-c3cnn4c(C5CCNCC5)cc(=O)[nH]c34)n2)CC1` [Example 264, 7-(piperidin-4-yl)-3-{3-[1-(propan-2-yl)piperidin-4-yl]-1,2,4-oxadiazol-5-yl}pyrazolo[1,5-a]pyrimidin-5(4H)-one hydrochloride] yielded an IC50 of 200 nM. `Cc1nn2c(C3CCNCC3)cc(=O)[nH]c2c1C#N` [Example 8, 2-Methyl-5-oxo-7-(piperidin-4-yl)-4,5-dihydropyrazolo[1,5-a]pyrimidine-3-carbonitrile trifluoroacetate] showed an IC50 of 29 nM. In the case of `Cn1nccc1-c1cnn2c(C3CCNCC3)cc(=O)[nH]c12` [Example 375, 3-(1-methyl-1H-pyrazol-5-yl)-7-(piperidin-4-yl)pyrazolo[1,5-a]pyrimidin-5(4H)-one hydrochloride], the IC50 is reported as 30 nM. `Cc1ccccc1Cc1noc(-c2cnn3c(C4CCNCC4)cc(=O)[nH]c23)n1` [Example 198, 3-[3-(2-methylbenzyl)-1,2,4-oxadiazol-5-yl]-7-(piperidin-4-yl)pyrazolo[1,5-a]pyrimidin-5(4H)-one hydrochloride] was tested, and the IC50 was 34 nM. In the case of `O=C(OCC(F)(F)F)c1cnn2c(C3CCNCC3)cc(=O)[nH]c12` [Example 354, 2,2,2-trifluoroethyl 5-oxo-7-(piperidin-4-yl)-4,5-dihydropyrazolo[1,5-a]pyrimidine-3-carboxylate hydrochloride], the IC50 is reported as 27 nM. `O=c1cc(C2CCNCC2)n2ncc(-c3nc(Cc4ccc(F)cc4)no3)c2[nH]1` [Example 224, 3-[3-(4-fluorobenzyl)-1,2,4-oxadiazol-5-yl]-7-(piperidin-4-yl)pyrazolo[1,5-a]pyrimidin-5(4H)-one hydrochloride] was tested, and the IC50 was 9.7 nM. In the case of `Cc1nn2c(C3CCNCC3)cc(=O)[nH]c2c1-c1ccc(Br)cc1` [Example 10, 3-(4-Bromophenyl)-2-methyl-7-(piperidin-4-yl)pyrazolo[1,5-a]pyrimidin-5(4H)-one hydrochloride], the IC50 is reported as 110 nM. Work on `COc1ccc(-c2cnn3c(C4CCNCC4)cc(=O)[nH]c23)cn1` [Example 69, 3-(6-Methoxypyridin-3-yl)-7-(piperidin-4-yl)pyrazolo[1,5-a]pyrimidin-5 (4H)-one] yielded an IC50 of 19 nM. For `COc1ccc(-c2noc(-c3cnn4c(C5CCNCC5)cc(=O)[nH]c34)n2)cc1Cl` [Example 142, 3-[3-(3-Chloro-4-methoxyphenyl)-1,2,4-oxadiazol-5-yl]-7-(piperidin-4-yl)pyrazolo[1,5-a]pyrimidin-5(4H)-one hydrochloride], the IC50 was 41 nM. `Cc1cc(C(F)(F)F)ccc1-c1noc(-c2cnn3c(C4CCNCC4)cc(=O)[nH]c23)n1` [Example 139, 3-{3-[2-Methyl-4-(trifluoromethyl)phenyl]-1,2,4-oxadiazol-5-yl}-7-(piperidin-4-yl)pyrazolo[1,5-a]pyrimidin-5(4H)-one hydrochloride] gave an IC50 of 41 nM. `CC(C)CCc1csc(-c2cnn3c(C4CCNCC4)cc(=O)[nH]c23)n1` [Example 304, 3-[4-(3-methylbutyl)-1,3-thiazol-2-yl]-7-(piperidin-4-yl)pyrazolo[1,5-a]pyrimidin-5 (4H)-one hydrochloride] showed an IC50 of 24 nM. Molecule `O=c1cc(C2CCNCC2)n2ncc(-c3nc(Cc4ccc(F)cc4Cl)no3)c2[nH]1` [Example 195, 3-[3-(2-chloro-4-fluorobenzyl)-1,2,4-oxadiazol-5-yl]-7-(piperidin-4-yl)pyrazolo[1,5-a]pyrimidin-5(4H)-one hydrochloride] has an IC50 of 35 nM. Molecule `Cc1nn2c(C3CCNCC3)cc(=O)[nH]c2c1C(=O)NC1CCCC1` [Example 417, N-cyclopentyl-2-methyl-5-oxo-7-(piperidin-4-yl)-4,5-dihydro-pyrazolo[1,5-a] pyrimidine-3-carboxamide hydrochloride] has an IC50 of 24 nM. `Cc1ccc(-c2nc(-c3cnn4c(C5CCNCC5)cc(=O)[nH]c34)no2)cc1` [Example 220, 3-[5-(4-methylphenyl)-1,2,4-oxadiazol-3-yl]-7-(piperidin-4-yl)pyrazolo[1,5-a]pyrimidin-5 (4H)-one hydrochloride] showed an IC50 of 15 nM. `O=c1cc(C2CCNCC2)n2ncc(-c3nc(-c4ccco4)no3)c2[nH]1` [Example 110] showed an IC50 of 82 nM. Molecule `O=c1cc(C2CCNCC2)n2ncc(-c3nc(-c4ccccc4OC(F)F)cs3)c2[nH]1` [Example 337, 3-{4-[2-(difluoromethoxy)phenyl]-1,3-thiazol-2-yl}-7-(piperidin-4-yl)pyrazolo[1,5-a]pyrimidin-5(4H)-one hydrochloride] has an IC50 of 30 nM. With `Cc1nn2c(C3CCNCC3)cc(=O)[nH]c2c1C(=O)O` [Example 323, 2-methyl-5-oxo-7-(piperidin-4-yl)-4,5-dihydropyrazolo[1,5-a]pyrimidine-3-carboxylic acid hydrochloride] the IC50 was 460 nM.
